Target: T1, TRAF6-UBC13 interaction (Homo sapiens, UniProt Q9Y4K3)
T1 construct: RING-Zincfinger1 (RZ1) domain (residues 50-159) of TRAF6 wildtype; made in house; host or cells: E. coli BL21 codon plus RIPL
T1 sequence (Q9Y4K3 50-159): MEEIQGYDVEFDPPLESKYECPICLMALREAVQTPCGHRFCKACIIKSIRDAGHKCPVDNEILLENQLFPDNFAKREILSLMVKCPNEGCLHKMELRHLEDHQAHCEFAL
Test: ALPHAScreen TRAF6WTStrepII-Ubc13FH interaction assay
Format: binding
Details: inhibition of TRAF6-UBC13 interaction
Text: In order to identify small molecules that specifically target the RZ1 domain of TRAF6 and thereby prevent its binding to Ubc13, the ALPHAScreen technology (PerkinElmer) was chosen to detect TRAF6WTStrepII-Ubc13FH interaction in High-Throughput-Screenings as well as Structure Activity Relationship (SAR) analysis.
For performance of an automated ALPHAScreen assay, all following components were pre-diluted in ALPHAScreen buffer (1×PBS, 0.5% BSA, 0.01% Tween-20). First, the TRAF6 protein (end concentration 100 nM, 30 μL volume) was added to 384-well-opti-plates involving the MultiFlo dispensing system (BioTek) followed by transfer of the compounds via the Sciclone G3 transfer station (PerkinElmer). After addition of Ubc13FH (end concentration 75 nM, 10 μL volume) with the MultiFlo system and incubation for one hour at room temperature, both beads (Strep-Tactin Alpha Donor beads and Nickel-Chelate acceptor beads; end concentrations 4 μg each, 10 μL volume each) were mixed and added using the MultiFlo system in subdued light. Read-out of the plates occurred after another hour of incubation at room temperature. Statistical parameters including the coefficient of variation, Z′ factor and signal window were calculated to determine the quality of the HTS campaign. To evaluate the efficacy of the compounds, ALPHAScreen units of compound-treated samples were referred to DMSO control treated samples. Thereby, the TRAF6D57K mutant served as the control for minimum signal and was included on every plate of the screening. Compounds that inhibited TRAF6WTStrepII-Ubc13FH by more than 25% were considered as actives. After elimination of ALPHAScreen frequent hitter compounds and His-tag frequent hitters (Schorpp, K., I. Rothenaigner, E. Salmina, et al., Identification of Small-Molecule Frequent Hitters from AlphaScreen High-Throughput Screens. J Biomol Screen, 2014. 19(5): p. 715-26), 178 compounds were defined as primary hits and were subsequently tested in five-point serial dilution assays (2.5-40 μM) in TRAF6WTStrepII-Ubc13FH ALPHAScreen experiments. Only compounds with dose-dependent effects on TRAF6WTStrepII-Ubc13FH (n=27) were taken for further research. For analog testing, all compounds were analyzed in ten-point titration (0.2-100 μM) in TRAF6WTStrepII-Ubc13FH ALPHAScreen experiments. In parallel, the compounds were tested in the ALPHAScreen TruHits Kit (PerkinElmer) to rule out unspecific interference with the ALPHAScreen technology.

SMILES | IC50
Cc1nn(-c2ccc3nnc(C)n3n2)c(C)c1CCC(=O)NCCc1c[nH]c2ccccc12 [Compound 20, N-(2-(1H-indol-3-yl)ethyl)-3-(3,5-dimethyl-1-(3-methyl-[1,2,4]triazolo[4,3-b]pyridazin-6-yl)-1H-pyrazol-4-yl)propanamide] | ≤ 30 µM
COc1cccc(N2CCN(C(=O)CCc3c(C)nn(-c4ccc5nnc(C)n5n4)c3C)CC2)c1 [Compound 61, 3-(3,5-dimethyl-1-(3-methyl-[1,2,4]triazolo[4,3-b]pyridazin-6-yl)-1H-pyrazol-4-yl)-1-(4-(3-methoxyphenyl)piperazin-1-yl)propan-1-one] | ≤ 3 µM
Cc1nn(-c2ccc3nnc(C)n3n2)c(C)c1CCC(=O)N1CCN(c2ccccc2)CC1 [Compound 1, 3-(3,5-dimethyl-1-(3-methyl-[1,2,4]triazolo[4,3-b]pyridazin-6-yl)-1H-pyrazol-4-yl)-1-(4-phenylpiperazin-1-yl)propan-1-one] | ≤ 3 µM
Cc1nn(-c2ccc3nnc(C)n3n2)c(C)c1CCC(=O)NCc1cccs1 [Compound 19, 3-(3,5-dimethyl-1-(3-methyl-[1,2,4]triazolo[4,3-b]pyridazin-6-yl)-1H-pyrazol-4-yl)-N-(thiophen-2-ylmethyl)propanamide] | ≤ 30 µM
Cc1nn(-c2ccc3nnc(C)n3n2)c(C)c1CCC(=O)N1CCN(Cc2cccc(Cl)c2)CC1 [Compound 11, 1-(4-(3-chlorobenzyl)piperazin-1-yl)-3-(3,5-dimethyl-1-(3-methyl-[1,2,4]triazolo[4,3-b]pyridazin-6-yl)-1H-pyrazol-4-yl)propan-1-one] | ≤ 10 µM
Cc1nn(-c2ccc3nncn3n2)c(C)c1CCC(=O)N1CCN(c2ccccc2)CC1 [Compound 10, 3-(1-([1,2,4]triazolo[4,3-b]pyridazin-6-yl)-3,5-dimethyl-1H-pyrazol-4-yl)-1-(4-phenylpiperazin-1-yl)propan-1-one] | ≤ 10 µM
Cc1nn(-c2ccc3nncn3n2)c(C)c1CCC(=O)N1CCC(Cc2ccccc2)CC1 [Compound 16, 3-(1-([1,2,4]triazolo[4,3-b]pyridazin-6-yl)-3,5-dimethyl-1H-pyrazol-4-yl)-1-(4-benzylpiperidin-1-yl)propan-1-one] | ≤ 30 µM
Cc1nn(-c2ccc3nnc(C)n3n2)c(C)c1CCC(=O)NCc1ccccc1 [Compound 21, N-benzyl-3-(3,5-dimethyl-1-(3-methyl-[1,2,4]triazolo[4,3-b]pyridazin-6-yl)-1H-pyrazol-4-yl)propanamide] | ≤ 30 µM
Cc1nn(-c2ccc3nnc(C)n3n2)c(C)c1CCC(=O)N1CCCC1 [Compound 6, 3-(3,5-dimethyl-1-(3-methyl-[1,2,4]triazolo[4,3-b]pyridazin-6-yl)-1H-pyrazol-4-yl)-1-(pyrrolidin-1-yl)propan-1-one] | ≤ 10 µM
Cc1ccc(CNC(=O)CCc2c(C)nn(-c3ccc4nnc(C)n4n3)c2C)o1 [Compound 13, 3-(3,5-dimethyl-1-(3-methyl-[1,2,4]triazolo[4,3-b]pyridazin-6-yl)-1H-pyrazol-4-yl)-N-((5-methylfuran-2-yl)methyl)propanamide] | ≤ 10 µM
Cc1nn(-c2ccc3nnc(C)n3n2)c(C)c1CCC(=O)NCc1ccc(Cl)cc1 [Compound 18, N-(4-chlorobenzyl)-3-(3,5-dimethyl-1-(3-methyl-[1,2,4]triazolo[4,3-b]pyridazin-6-yl)-1H-pyrazol-4-yl)propanamide] | ≤ 30 µM
Cc1nn(-c2ccc3nnc(C)n3n2)c(C)c1CCC(=O)N1CCN(c2ccc(F)cc2)CC1 [Compound 4, 3-(3,5-dimethyl-1-(3-methyl-[1,2,4]triazolo[4,3-b]pyridazin-6-yl)-1H-pyrazol-4-yl)-1-(4-(4-fluorophenyl)piperazin-1-yl)propan-1-one] | ≤ 3 µM
COc1ccc(N2CCN(C(=O)CCc3c(C)nn(-c4ccc5nnc(C)n5n4)c3C)CC2)cc1 [Compound 7, 3-(3,5-dimethyl-1-(3-methyl-[1,2,4]triazolo[4,3-b]pyridazin-6-yl)-1H-pyrazol-4-yl)-1-(4-(4-methoxyphenyl)piperazin-1-yl)propan-1-one] | ≤ 10 µM
Cc1nn(-c2ccc3nncn3n2)c(C)c1CCC(=O)N1CCN(c2ccccn2)CC1 [Compound 12, 3-(1-([1,2,4]triazolo[4,3-b]pyridazin-6-yl)-3,5-dimethyl-1H-pyrazol-4-yl)-1-(4-(pyridin-2-yl)piperazin-1-yl)propan-1-one] | ≤ 10 µM
Cc1nn(-c2ccc3nnc(C)n3n2)c(C)c1CCC(=O)NCCCc1ccccc1 [Compound 15, 3-(3,5-dimethyl-1-(3-methyl-[1,2,4]triazolo[4,3-b]pyridazin-6-yl)-1H-pyrazol-4-yl)-N-(3-phenylpropyl)propanamide] | ≤ 30 µM
Cc1nn(-c2ccc3nncn3n2)c(C)c1CCC(=O)N1CCN(c2ccc(F)cc2)CC1 [Compound 5, 3-(1-([1,2,4]triazolo[4,3-b]pyridazin-6-yl)-3,5-dimethyl-1H-pyrazol-4-yl)-1-(4-(4-fluorophenyl)piperazin-1-yl)propan-1-one] | ≤ 10 µM
Cc1nn(-c2ccc3nnc(C)n3n2)c(C)c1CCC(=O)N1CCN(c2ccccn2)CC1 [Compound 2, 3-(3,5-dimethyl-1-(3-methyl-[1,2,4]triazolo[4,3-b]pyridazin-6-yl)-1H-pyrazol-4-yl)-1-(4-(pyridin-2-yl)piperazin-1-yl)propan-1-one] | ≤ 3 µM
COc1cccc(N2CCN(C(=O)CCc3c(C)nn(-c4ccc5nncn5n4)c3C)CC2)c1 [Compound 8, 3-(1-([1,2,4]triazolo[4,3-b]pyridazin-6-yl)-3,5-dimethyl-1H-pyrazol-4-yl)-1-(4-(3-methoxyphenyl)piperazin-1-yl)propan-1-one] | ≤ 10 µM
Cc1nn(-c2ccc3nnc(C)n3n2)c(C)c1CCC(=O)N1CCN(c2ccccc2F)CC1 [Compound 14, 3-(3,5-dimethyl-1-(3-methyl-[1,2,4]triazolo[4,3-b]pyridazin-6-yl)-1H-pyrazol-4-yl)-1-(4-(2-fluorophenyl)piperazin-1-yl)propan-1-one] | ≤ 30 µM
COc1ccc(N2CCN(C(=O)CCc3c(C)nn(-c4ccc5nncn5n4)c3C)CC2)cc1 [Compound 9, 3-(1-([1,2,4]triazolo[4,3-b]pyridazin-6-yl)-3,5-dimethyl-1H-pyrazol-4-yl)-1-(4-(4-methoxyphenyl)piperazin-1-yl)propan-1-one] | ≤ 10 µM

Same assay, conditions: inhibition of TRAF6-UBC13 interaction; read-out: IC50 Alphascreen

SMILES | inhibition at 100 µM
CCN1CCN(C(=O)CCc2c(C)nn(-c3ccc4nnc(C)n4n3)c2C)CC1 [Compound 23, 3-(3,5-dimethyl-1-(3-methyl-[1,2,4]triazolo[4,3-b]pyridazin-6-yl)-1H-pyrazol-4-yl)-1-(4-ethylpiperazin-1-yl)propan-1-one] | ≥ 30%
Cc1nn(-c2ccc3nnc(C)n3n2)c(C)c1CCC(=O)NCc1ccccc1F [Compound 26, 3-(3,5-dimethyl-1-(3-methyl-[1,2,4]triazolo[4,3-b]pyridazin-6-yl)-1H-pyrazol-4-yl)-N-(2-fluorobenzyl)propanamide] | ≥ 30%
Cc1nn(-c2ccc3nncn3n2)c(C)c1CCC(=O)N1CCCC1 [Compound 25, 3-(1-([1,2,4]triazolo[4,3-b]pyridazin-6-yl)-3,5-dimethyl-1H-pyrazol-4-yl)-1-(pyrrolidin-1-yl)propan-1-one] | ≥ 30%
Cc1nn(-c2ccc3nnc(C)n3n2)c(C)c1CCC(=O)NCCSCc1ccco1 [Compound 27, 3-(3,5-dimethyl-1-(3-methyl-[1,2,4]triazolo[4,3-b]pyridazin-6-yl)-1H-pyrazol-4-yl)-N-(2-((furan-2-ylmethyl)thio)ethyl)propanamide] | ≥ 30%
Cc1nn(-c2ccc3nncn3n2)c(C)c1CCC(=O)N1CCC(C)CC1 [Compound 24, 3-(1-([1,2,4]triazolo[4,3-b]pyridazin-6-yl)-3,5-dimethyl-1H-pyrazol-4-yl)-1-(4-methylpiperidin-1-yl)propan-1-one] | ≥ 30%
Cc1nn(-c2ccc3nncn3n2)c(C)c1CCC(=O)NCCCc1ccccc1 [Compound 22, 3-(1-([1,2,4]triazolo[4,3-b]pyridazin-6-yl)-3,5-dimethyl-1H-pyrazol-4-yl)-N-(3-phenylpropyl)propanamide] | ≥ 30%

Reference: patent US11001591B2, “TRAF 6 inhibitors” (HELMHOLTZ ZENTRUM MUENCHEN—DEUTSCHES FORSCHUNGSZENTRUM FÜR …, priority 2016, dated 2021)
